Tests used:
[1] = target: T1, purified sickle cell hemoglobin (HbS) (Homo sapiens, UniProt P68871+P69905, E7V); test: Binding affinity to purified HbS by Surface Plasmon Resonance (SPR); conditions: crosslinked biotinylated HbS, 1:1 binding model
T1 construct: HbS was obtained from the blood of homozygous S/S patients; from tissue; host or cells: red blood cells of homozygous S/S patients
Experimental: Binding Affinity, Kd (uM)
The binding affinity for compounds to purified sickle cell hemoglobin (HbS) was determined using Surface Plasmon Resonance (SPR). Patient Sickle Cell blood was obtained from Boston Children's Hospital in accordance with Institutional Review Board protocols. HbS was obtained from the blood of homozygous S/S patients, and purified using the method described in: Antonini and Brunori, Hemoglobin and Myoglobin in their Reactions with Ligands. Amsterdam, London, North-Holland Publishing Company, 1971. Whole blood was separated into red blood cell and plasma components by centrifugation, after which the plasma was decanted and discarded. Packed red blood cells were washed with normal saline (0.9% NaCl) and then lysed by 2:1 dilution with cold deionized water. The hemolysate was centrifuged to remove cellular debris, and further purified with the addition of Drabkin's Buffer (2.8 M potassium phosphate), and centrifugation with Celite®. Organic phosphates (2,3-BPG) were removed via gel filtration with Sephadex® G-25. HbS and wild-type hemoglobin, hemoglobin A (HbA), were separated by […], using diethylaminoethyl (DEAE)-Sepharose® fast flow, and eluted using a pH gradient from pH 8.5-pH 7.5. Purity of the resulting HbS and HbA was determined by native gel electrophoresis and HbS fractions used further.
To stabilize the tetrameric structure of hemoglobin, HbS was crosslinked between the beta subunits (Lys82-Lys82) using bis(3,5-dibromosalicyl) fumarate, as described in: Shibayama N. et al, J Am Chem Soc 2014, 136, 13, 5097-5105 and Shibayama N. et al, Biochemistry 1991, 39, 33, 8158-8165). Crosslinked HbS was subsequently biotynylated and captured on a custom made Streptavidin sensor to achieve protein density of 4000 to 5000 resonance units (RUs) on the surface. Compound binding to HbS using SPR was tested on Sierra Sensors MASS-1 instrument. The running buffer contained 100 mM Potassium Phosphate, pH 7.5, 0.005% Tween-20, 1 mM ethylenediaminetetraacetic acid (EDTA), 0.1 mg/mL bovine serum albumin with 1% DMSO. Compound samples were injected at a flow rate of 30 μL/min for 2 minutes association and at least 5 minutes of dissociation time. A 2- or 3-fold dilution series containing at least 4 concentrations were tested for each compound. The dose range was selected based on the activity of the compounds in biochemical assays, when available. Multiple blank injections of running buffer were run before and after each compound series to allow blank subtraction for compound data in the analysis software. Positive controls were run in each experiment to monitor and maintain the activity of HbS on the surface. A DMSO curve was run at the beginning of each data set to apply an excluded volume correction to the data during analysis. The data were processed and analyzed using Sierra Sensors and Scrubber 2.0 software. The binding affinities (dissociation constant Kd) were calculated by fitting the sensorgrams to a 1:1 binding model.

[2] = target: T2, HbS (Homo sapiens, UniProt P68871+P69905, E7V); test: 'R'-'T' assay (conversion of oxy HbS to deoxy HbS under deoxygenating conditions); format: biochemical; conditions: 50% inhibition of HbS 'R'-'T' conversion; 3 uM HbS, <1% O2
T2 construct: HbS was obtained from the blood of homozygous S/S patients; from tissue; host or cells: red blood cells of homozygous S/S patients
Experimental: Conversion from oxy (R, relaxed state) to deoxy (T, tense state) HbS in the presence of compound was performed to determine the ability of compounds to stabilize the oxy (R) state under deoxygenating conditions. The assay run was similar to the ‘Oxygen dissociation assay’ described in Oksenberg et al, Br J Haematology, 2016, 175, 141-153.
Assay ready compound plates were prepared by first preparing a master serial dilution plate from a 30 mM initial compound stock in 100% DMSO. From this master serial dilution plate, 167 nL of the desired compound concentration was delivered to the assay ready plates using acoustical dispensing. Plates were frozen at −20° C. until needed. Purified HbS-O2 (i.e. oxy HbS) was diluted to 3 uM in 100 mM potassium phosphate buffer, pH=7.4. 50 uL of 3 uM stock solution was added to each well of the assay ready plate and mechanically mixed eight times. Following mixing the plates were covered and incubated at room temperature for one hour with moderate shaking. Following incubation, the plates were placed in a deoxygenated environment (<1% O2) for two hours, and the conversion to deoxy HbS monitored as a function of time. Oxygenated and deoxygenated forms of hemoglobin were detected using the absorbance of the Soret peaks at 415 and 430 nm respectively, and absorbance measurements (optical density, OD) were taken at 0, 90 and 120 minutes. Background absorbance for correction was collected at 700 nm.
Data were analyzed by first subtracting baseline absorbance at 700 nm from 415 nm and 430 nm data at each timepoint, and then taking the ratio of 415/430 nm data (Ratio=[(OD415−OD700)/(OD430−OD700)]. The effect at each timepoint was calculated using the ratios from the previous calculation at time 0 and each time point of interest (Effect^time x=Ratio^time x/Ratio^time 0). Percent effect was calculated by comparing the effects of compound versus HbS only with the effects observed by the positive control compound tucaresol (percent effect=[(effect^time x compound−effect^time x HbS)/(effect^time x tucaresol−effect^time x HbS)]×100). Data were reported as the percent effect for a single point. Calculations to determine the concentration of compound for 50% inhibition (IC50 (uM)) of the HbS ‘R’-‘T’ conversion were based on the percent effect at varying compound concentration.

SMILES	Kd [1] [µM]	IC50 [2] [µM]
Cc1cc2nc(N)c(O[C@@H](C)c3nc(O)ccc3-n3cccn3)cc2cn1 [Example 46, 6-{(1S)-1-[(2-amino-7-methyl-1,6-naphthyridin-3-yl)oxy]ethyl}-5-(1H-pyrazol-1-yl)pyridin-2-ol]	0.102	5.22
C[C@H](Oc1cc2ncccc2nc1N)c1nc(O)ccc1-n1cccn1 [Example 47, 6-{(1S)-1-[(2-amino-1,5-naphthyridin-3-yl)oxy]ethyl}-5-(1H-pyrazol-1-yl)pyridin-2-ol]	0.384	6.32
C[C@H](Oc1cc2ncc(F)cc2nc1N)c1nc(O)ccc1-n1cccn1 [Example 48, 6-{(1S)-1-[(2-amino-7-fluoro-1,5-naphthyridin-3-yl)oxy]ethyl}-5-(1H-pyrazol-1-yl)pyridin-2-ol]	0.253	4.71
C[C@H](Oc1cc2cc(CO)ccc2nc1N)c1nc(O)ccc1-n1cccn1 [Example 49, 6-[(1S)-1-{[2-amino-6-(hydroxymethyl)quinolin-3-yl]oxy}ethyl]-5-(1H-pyrazol-1-yl)pyridin-2-ol]	0.178	6.39
C[C@H](Oc1cc2cc(C(C)(C)O)ccc2nc1N)c1nc(O)ccc1-n1cccn1 [Example 50, 6-[(1S)-1-{[2-amino-6-(2-hydroxypropan-2-yl)quinolin-3-yl]oxy}ethyl]-5-(1H-pyrazol-1-yl)pyridin-2-ol]	1.33	100
C[C@H](Oc1cc2cc([C@@H](C)O)ccc2nc1N)c1nc(O)ccc1-n1cccn1 [Example 51, 6-[(1S)-1-({2-amino-6-[(1R)-1-hydroxyethyl]quinolin-3-yl}oxy)ethyl]-5-(1H-pyrazol-1-yl)pyridin-2-ol]	6.88	52.1
C[C@H](O)c1ccc2nc(N)c(O[C@@H](C)c3nc(O)ccc3-n3cccn3)cc2c1 [Example 52, 6-[(1S)-1-({2-amino-6-[(1S)-1-hydroxyethyl]quinolin-3-yl}oxy)ethyl]-5-(1H-pyrazol-1-yl)pyridin-2-ol]	10	100
C[C@H](Oc1cc2cc(F)cc(F)c2nc1N)c1[nH]c(=O)ccc1-n1cccn1 [Example 53, 6-{(1S)-1-[(2-amino-6,8-difluoroquinolin-3-yl)oxy]ethyl}-5-(1H-pyrazol-1-yl)pyridin-2-ol]	0.016	4.25
Cc1ccc2nc(N)c(O[C@@H](C)c3nc(O)ccc3-n3cccn3)cc2n1 [Example 54, 6-{(1S)-1-[(2-amino-6-methyl-1,5-naphthyridin-3-yl)oxy]ethyl}-5-(1H-pyrazol-1-yl)pyridin-2-ol]	0.892	11.2
C[C@H](Oc1cc2cc(C(N)=O)ccc2nc1N)c1nc(CO)ccc1-n1cccn1 [Example 55, 2-amino-3-{(1S)-1-[6-(hydroxymethyl)-3-(1H-pyrazol-1-yl)pyridin-2-yl]ethoxy}quinoline-6-carboxamide]	0.406	5.71
COc1ccc(-n2cccn2)c([C@H](C)Oc2cc3cc(F)cc(F)c3nc2N)n1 [Example 56, 6,8-difluoro-3-{(1S)-1-[6-methoxy-3-(1H-pyrazol-1-yl)pyridin-2-yl]ethoxy}quinolin-2-amine]	0.053	5.68
COc1ccc(-n2cccn2)c([C@H](C)Oc2cc3cc(F)ccc3nc2N)n1 [Example 57, 6-fluoro-3-{(1S)-1-[6-methoxy-3-(1H-pyrazol-1-yl)pyridin-2-yl]ethoxy}quinolin-2-amine]	0.184	4.84
C[C@H](Oc1cc2cc(F)c(Cl)cc2nc1N)c1cc2[nH]ncc2cc1-n1cccn1 [Example 60, 7-chloro-6-fluoro-3-{(1S)-1-[5-(1H-pyrazol-1-yl)-1H-indazol-6-yl]ethoxy}quinolin-2-amine]	0.055	4.11
C[C@H](Oc1cc2cc(F)ccc2nc1N)c1cc2[nH]cnc2cc1-n1cccn1 [Example 63, 6-fluoro-3-{(1S)-1-[5-(1H-pyrazol-1-yl)-1H-benzimidazol-6-yl]ethoxy}quinolin-2-amine]	0.152	8.36
Cc1nc2cc(-n3cccn3)c([C@H](C)Oc3cc4cc(F)ccc4nc3N)cc2[nH]1 [Example 64, 6-fluoro-3-{(1S)-1-[2-methyl-5-(1H-pyrazol-1-yl)-1H-benzimidazol-6-yl]ethoxy}quinolin-2-amine]	0.22	5.73
C[C@H](Oc1cc2cc(F)ccc2nc1N)c1cc2c(cnn2CC(=O)O)cc1-n1cccn1 [Example 67, [6-{(1S)-1-[(2-amino-6-fluoroquinolin-3-yl)oxy]ethyl}-5-(1H-pyrazol-1-yl)-1H-indazol-1-yl]acetic Acid]	0.009	3.71
C[C@H](Oc1cc2cc(F)ccc2nc1N)c1nc2[nH]ncc2cc1-n1cccn1 [Example 68, 6-fluoro-3-{(1S)-1-[5-(1H-pyrazol-1-yl)-1H-pyrazolo[3,4-b]pyridin-6-yl]ethoxy}quinolin-2-amine]	0.015	4.61
C[C@H](Oc1cc2cc(F)cc(F)c2nc1N)c1cc2c(cnn2CC(=O)O)cc1-n1cccn1 [Example 69, [6-{(1S)-1-[(2-amino-6,8-difluoroquinolin-3-yl)oxy]ethyl}-5-(1H-pyrazol-1-yl)-1H-indazol-1-yl]acetic Acid]	0.01	4.67
C[C@H](Oc1cc2cc(F)ccc2nc1N)c1cc2c(cnn2CC(N)=O)cc1-n1cccn1 [Example 70, 2-[6-{(1S)-1-[(2-amino-6-fluoroquinolin-3-yl)oxy]ethyl}-5-(1H-pyrazol-1-yl)-1H-indazol-1-yl]acetamide]	0.013	4.6
C[C@H](Oc1cc2cc(F)ccc2nc1N)c1cc2nn(CC(=O)O)cc2cc1-n1cccn1 [Example 71, [6-{(1S)-1-[(2-amino-6-fluoroquinolin-3-yl)oxy]ethyl}-5-(1H-pyrazol-1-yl)-2H-indazol-2-yl]acetic Acid]	0.048	4.61
C[C@H](Oc1cc2cc(F)cc(F)c2nc1N)c1cc2c(cnn2CCO)cc1-n1cccn1 [Example 72, 2-[6-{(1S)-1-[(2-amino-6,8-difluoroquinolin-3-yl)oxy]ethyl}-5-(1H-pyrazol-1-yl)-1H-indazol-1-yl]ethanol]	0.011	3.03
C[C@H](Oc1cc2cc(F)ccc2nc1N)c1cc2c(cnn2CCO)cc1-n1cccn1 [Example 73, 2-[6-{(1S)-1-[(2-amino-6-fluoroquinolin-3-yl)oxy]ethyl}-5-(1H-pyrazol-1-yl)-1H-indazol-1-yl]ethanol]	0.02	4.51

Reference: US11014908B2, “Chemical compounds” (Pfizer Inc., priority 2018, dated 2021)
